# Reference: paper PMC10976219, “Purification and Biochemical Characterization of Polyphenol Oxidase Extracted from Wheat Bran (Wan grano)” (Molecules, 2024)
# Test system: T1, wheat PPO (purified wheat bran polyphenol oxidase)
# T1 construct: gene PPO-A1; native, purified from wheat bran (ammonium sulfate, DEAE-Sepharose, Superdex G-75); approx. 21 kDa on SDS-PAGE, dual bands 21 and 17 kDa
# Test: spectrophotometric oxidation assay at […] nm, Lineweaver-Burk
# Format: biochemical, Triticum aestivum
# Details: 50 mM phosphate pH 6.5, 35 °C, 2-10 mM substrate
row,SMILES,Km [mM]
1,Oc1ccccc1O [catechol],6.36 ± 0.71
2,O=C(O[C@@H]1Cc2c(O)cc(O)cc2O[C@@H]1c1ccc(O)c(O)c1)c1cc(O)c(O)c(O)c1 [epicatechin gallate],7.9 ± 0.64
3,Oc1cc(O)c2c(c1)O[C@H](c1ccc(O)c(O)c1)[C@H](O)C2 [epicatechin],8.01 ± 0.46
4,O=C(O[C@@H]1Cc2c(O)cc(O)cc2O[C@@H]1c1cc(O)c(O)c(O)c1)c1cc(O)c(O)c(O)c1 [epigallocatechin gallate],7.7 ± 0.14
5,Oc1cc(O)c2c(c1)O[C@H](c1cc(O)c(O)c(O)c1)[C@H](O)C2 [epigallocatechin],9.05 ± 0.18
6,O=C(O)c1cc(O)c(O)c(O)c1 [gallic acid],7.05 ± 0.47
7,Oc1cccc(O)c1O [pyrogallic acid],7.37 ± 0.71
